This note sets out measurements from PMC10590756, “Glutarate regulates T cell metabolism and anti-tumour immunity” (Nature Metabolism, 2023).

Data set [1] has as its system primary murine CD8^+ T cells. Kind of data set: Screen of T cell differentiation: CD62L/CD44 populations by flow cytometry. Type of data set: cell-based, mouse. From the text:
We first sought to investigate if compounds structurally related to 2HG could increase the TCM population of CD8^+ T cells. To carry out this analysis, we identified 19 structural analogues of 2HG; eight were commercially available and 11 were synthesized de novo for the purposes of this study (Table 1). We used esterified versions of most of the compounds used, so as to increase both potency and intracellular translocation. The octyl ester form of S-2HG was used as a positive control in these assays. We screened the compounds for effects on T cell differentiation at 400-µM levels (using the efficacy of S-2HG in CD8^+ T cells as a guide[11]) in culture media during the process of activation of isolated primary murine CD8^+ T cells.
After 7 days of culture, we assessed the abundance of CD62L^hiCD44^hi (TCM-like) T cells by flow cytometry (Fig. 1a). We additionally determined the effect of each compound on cell growth and viability (Fig. 1b and Extended Data Fig. 1a).
Mouse CD8^+ T cells were isolated from mouse spleens using positive selection. Incubation with microbeads conjugated to monoclonal anti-mouse CD8α (Ly-2; isotype: rat IgG2a) antibody (catalogue no. 130-049-401, Miltenyi Biotec) was followed by magnetic bead isolation on a MACS column. WT mouse CD8^+ T cells were activated with anti-mouse CD3/CD28 Dynabeads (catalogue no. 11453D, Thermo Fisher Scientific) at a 1:1 cell:bead ratio. Purified OT1 CD8^+ T cells were activated with 1 µg ml^−1 of the OVA-derived peptide SIINFEKL (ProImmune). All mouse CD8^+ T cells were cultured in complete RPMI 1640 supplemented with 10% FCS, 100 U ml^−1 penicillin, 100 µg ml^−1 streptomycin, 55 µM 2-ME (catalogue no. 21985023, Gibco) and 10 U ml^−1 IL-2.
Single-cell suspensions were stained with LIVE/DEAD Fixable Near-IR Dead Cell Stain Kit (catalogue no. 10119, Thermo Fisher Scientific) followed by surface and intracellular staining with fluorochrome-labelled antibodies (Supplementary Tables 1 and 2). […]

Data set [2] relates to 5hmC (the reaction product of TET2) in human CD8^+ T cells. Kind of data set: 5hmC staining by flow cytometry. The format is cell-based. Conditions: DEG 7 days, dose-dependent. On the procedure:
For 5-hydroxymethylcytosine (5hmC) staining, cells were stained for surface antigens as above and then fixed and permeabilized with the Transcription Factor Buffer Set. Next cells were incubated with 4 M HCl for 10 min at room temperature. Cells were then thoroughly washed and incubated in blocking buffer (0.1% PBS-Triton X-100, 5% FCS) for 30 min at 4 °C. Cells were then incubated with primary anti-5hmC (catalogue no. 10013602, Active Motif) overnight at 4 °C and the day after with secondary antibody for 1 h at room temperature. Flow cytometry was then performed as explained above. Cells were sorted on an FACSAria III (BD Biosciences) after surface antigen staining as described above. Data were analysed using FlowJo v.10.7.2.

The next data set deals with CD19^+ Raji cells. Kind of data set: In vitro cytotoxicity and IFNγ secretion of CD19 CAR T cells. Conditions: T cells cultured 7 days with 500 µM DEG. Type of data set: cell-based, human. On the procedure: Secreted IFNγ levels of cultured cells were determined using an ELISA. Assays were performed with uncoated ELISA kits (catalogue no. 88-7316, Thermo Fisher Scientific), according to the manufacturer’s instructions. Absorbance was determined using a microplate reader (Sunrise, Tecan) at a wavelength of 450 nm.
Ten thousand B16F10-OVA or SKOV3 cells were seeded per well in 96-well plates and cocultured for a minimum of 14 h with varying ratios of mouse CD8^+ OT1 or human CD8^+RQR8^+ HER2 CAR T cells, respectively. T cells had been treated with or without DEG 7 days before the assay. Wells were washed twice with PBS to remove T cells and the number of remaining target cells was determined by culturing with 10 µg ml^−1 resazurin (catalogue no. R7017, Sigma-Aldrich) and measuring the fluorescence signal in a plate reader. Cytotoxicity was calculated relative to wells with no T cells added. Ten thousand Raji cells were cocultured for a minimum of 14 h with CD19 CAR T cells previously activated for 7 days and cultured with or without DEG. Cytotoxicity was assessed by flow cytometry using the ratio of live Raji cells to CountBright Absolute Counting Beads (catalogue no. C36950, Thermo Fisher Scientific). To determine specific cytotoxicity, data were normalized to the cytotoxicity of the vector-controlled transduced CD8 T cells of the respective donor.

The test system of data set [3] is B16F10-OVA melanoma tumours. Kind of data set: B16F10-OVA tumour growth and infiltration model. The format is in vivo, C57BL/6J mice. The protocol: Seven to 10-week-old male C57BL/6J mice were inoculated subcutaneously with 1.0 × 10^6 B16F10-OVA. Animals were assigned randomly to each experimental group. Four days after inoculation, mice were treated with a peritoneal injection of 0.2 mg DEG (approximately 10 mg kg^−1). Treatment was repeated every 2–3 days until day 28. Tumour volume was measured every 2–3 days with electronic callipers until day 30. Peripheral blood was collected from the tail vein at day 7 and 14 days after tumour inoculation and analysed using flow cytometry. On day 14, tumours were dissected and dissociated using the Tumor Dissociation Kit (catalogue no. 130-095-929, Miltenyi Biotec), according to the manufacturer’s instructions. Spleen and the tumour-draining lymph node were mashed in cell strainers. The tumour, spleen and draining lymph node single-cell suspensions were stained with fluorochrome-labelled antibodies and analysed using flow cytometry. The tumour experiments using C57BL/6J mice were carried out in accordance with the ethical regulations of the UK Home Office and the maximal tumour burden of […] was not exceeded (mice were euthanized when tumour volume exceeded […]).

The mark [4] stands for this setting: 14 days after tumour inoculation, relative to controls.

`CCOC(=O)CCCC(=O)OCC` [DEG, Diethyl glutarate]: in data set [1] (400 µM test compound, 7 days of culture), the “abundance of CD62L^hiCD44^hi (TCM-like) CD8^+ T cells” value is on record as “significantly increased”. Moreover, in data set [1] (7 days of culture with DEG), the “effector memory T (TEM) cell population (CD62L^loCD44^hi)” value is “decreased”. In addition, the “CD62L^hiCD44^hi TCM population” value in data set [1] (increasing concentrations of DEG, 7 days) was “increased the CD62L^hiCD44^hi TCM population in a dose-dependent manner”. Also, the 5hmC levels result in data set [2] was “decrease”. Besides, the “cytotoxicity of CD19^+ CAR T cells against CD19^+ Raji cells” value in the data set with CD19^+ Raji cells was “increased cytotoxicity”. Besides, the “interferon-γ (IFNγ) secretion of CD19^+ CAR T cells” value with CD19^+ Raji cells (coculture with Raji cells) is given as “secreted more”. Further, in data set [3] (10 mg kg^−1 DEG intraperitoneally every 48–72 h, 1,000 mm^3 tumour volume as threshold), the survival entry is given as “significantly increased survival”. Further, the tumour growth result in data set [3] (10 mg kg^−1 DEG intraperitoneally every 48–72 h from day 4) is “significantly slowed tumour growth”. In data set [3] (setting [4]), the “peripheral blood CD8^+ T cells” value is reported as “significant increase” and the “tumour-infiltrating CD8^+ T cells” value is “significant increase”. For the same compound, the other immune populations result in data set [3] (blood, tumour, spleen, tumour-draining lymph node, day 14) is given as “No changes”. In addition, in data set [3] (day 14), the “circulating B cells” value is reported as “slight decrease”; the “exhaustion-associated markers (TIM3, PD1, LAG3, TOX) in tumour-infiltrating CD4^+ or CD8^+ cells” value was “no changes”; the “memory-associated markers (CD62L and CD44) in tumour-infiltrating CD4^+ or CD8^+ cells” value is reported as “no changes”.
